In publication PMC9072415, “Activation of cannabinoid receptors in breast cancer cells improves osteoblast viability in cancer-bone interaction model while reducing breast cancer cell survival and migration” (Scientific Reports, 2022):
Entries after “also recorded” stand apart in the source; their conditions may differ.

Assays:
Format in all cases: cell-based
[1] = system: UMR-106 cells; experiment: MTT cell viability assay, UMR-106 cells; settings: for IC50: MTT; for effect of low concentrations on osteoblast growth: UMR-106 osteoblasts
Procedure: (§1) Osteoblast-like UMR-106 cells (RRID CVCL_3617; ATCC CRL-1661) and triple-negative breast cancer cells, MDA-MB-231 (RRID CVCL_0062; ATCC HTB-26) were obtained from American Type Culture Collection (ATCC, VA, USA). Cells were cultured in Dulbecco’s modified Eagle’s medium (DMEM) (Sigma-Aldrich, MO, USA) containing 10% (v/v) fetal bovine serum (FBS) and 1% penicillin–streptomycin (Gibco, Texas, USA) and maintained under 5% CO2 at 37 °C, and sub-cultured according to the manufacturer’s instruction.
(§2) Cell viability was assessed using the 3-(4,5-dimethylthiazol-2-yl)-2,5-diphenyltetrazolium bromide (MTT) colorimetric assay. The assay was performed according to a previously described method. In brief, cells were seeded into a 96-well plate at a density of 1.0 × 10^4 cells/well and allowed to attach overnight. Thereafter, they were treated with ACEA, GW405833 or the combination of both for the indicated times. MTT (Invitrogen, CA, USA) solution was added to the final concentration of 0.5 mg/mL in 100 µL in serum-free DMEM and incubated at 37 °C for 4 h, then stop solution was added and thoroughly mixed. The optical density at 595 nm was measured using a microplate reader (Multiskan EX) (Thermo Fisher Scientific, MA, USA). The percentage of cell viability was calculated based on the absorbance ratio between cells treated with the compounds and control multiplied by 100 (percent cell viability normalized to control).
(§3) All results are expressed as means ± standard errors (SEM). Unless otherwise specified, statistical analysis for multiple comparisons was performed using one-way analysis of variance (ANOVA). The difference between pairs of means was analyzed by Tukey post-test. A p-value < 0.05 was considered statistically significant. Calculation of the inhibitory concentration at 50% (IC50) and all statistical analyses were performed using GraphPad Prism 9 (GraphPad Software Inc., USA).

[2] = system: MDA-MB-231 cells; experiment: MTT cell viability assay, MDA-MB-231 cells; settings: for IC50: MTT
Procedure: as §1, §2, §3

[3] = system: UMR-106 cells; experiment: UMR-106 viability (MTT) with conditioned media from agonist-pretreated MDA-MB-231 cells; settings: MDA-MB-231 pretreated 48 h; CM collected after 48 h in serum-free DMEM
Procedure: To collect CM from MDA-MB-231 cells, cells were seeded into a 6-well plate at a density of 5.0 × 10^5 cells/well and grown for 24 h until reaching 80–90% confluence. In the pretreatment experiment, cells were treated with either ACEA, GW405833 or a combination of both for 48 h. After that, cells were washed with phosphate buffered saline (PBS) and incubated in serum-free DMEM. Forty-eight hours later, CM from these cells was harvested, filtered through a syringe filter (pore size of 0.2 µm; Sartorius Stedim Biotech GmbH, Göttingen, Germany) to remove cells and debris, and stored at − 80 °C for later experiments (Fig. 1a).
as §2, with “MTT (Invitrogen, CA, USA) solution was added to the final concentration of 0.5 mg/mL in 100 µL in serum-free DMEM and incubated at 37 °C for 4 h, then stop solution was added and thoroughly mixed.” left out

[4] = system: cellular ROS in MDA-MB-231 cells; experiment: DCFDA cellular ROS detection assay; settings: 30 µM ACEA, 15 µM GW405833 or combination, 6 h
Procedure: Cellular reactive oxygen species (ROS) were monitored using the 2´,7´-dichlorofluorescin diacetate (DCFDA) Cellular ROS Detection Assay Kit (ab113851) (Abcam, Cambridge, UK) according to the manufacturer's instruction. In brief, MDA-MB-231 cells were seeded into a 96-black well plates with clear bottom at a density of 2.5 × 10^4 cells/well and grown overnight. Then, the cells were treated with ACEA, GW405833 or the combination of both for 6 h. At the end of the treatment, fluorescence signal of DCF was measured by using a multimode microplate reader (Spark 10 M) (Tecan Austria GmbH, Männedorf, Austria) with the excitation and emission wavelengths of 485 and 535 nm, respectively.

[5] = system: p-NF-κB p65 in MDA-MB-231 cells; experiment: Western blot of p-NF-κB p65 expression; settings: individual treatments, 48 h
Procedure: Twenty micrograms of protein samples were resolved by sodium dodecyl sulfate polyacrylamide gel electrophoresis (SDS-PAGE) (Invitrogen) gel before being transferred to nitrocellulose blotting membrane (GE Healthcare, Texas, USA).The membranes were then blocked with 5% (w/v) bovine serum albumin (BSA) (Capricorn Scientific, Hessen, Germany) for 2 h at room temperature, followed by the incubation at 4 °C overnight with primary antibodies. After washing, the membranes were incubated with the appropriate horseradish peroxidase (HRP)-conjugated secondary antibodies. Proteins on the immunoblots were visualized by enhanced chemiluminescence (ECL) (Millipore, MA, USA) and exposed to X-ray film (GE Healthcare). Protein band intensity was quantified using ImageJ software (National Institutes of Health, MD, USA). To relatively quantify the target protein expression, the intensity of target protein band was normalized to β-actin of each lane.

[6] = system: MDA-MB-231 cells; experiment: Wound healing cell migration assay; settings: for cell migration (wound closure): 15 µM
Procedure: Cell migration was measured by wound healing assay modified from Lertsuwan et al.,[27]. Briefly, MDA-MB-231 cells were seeded into a 24-well plate at a density of 4.0 × 10^5 cells/well and allowed to attach overnight. Thereafter, wound was created with a sterile 200-µL pipette tip, then the cells were treated with ACEA, GW405833 or the combination of both. Series of images of the scratched wound were taken under a phase contrast inverted microscope (model AE31) (Motic, China) from 0 to 36 h. The closure of the wound representing migration ability of the cells was measured by using ImageJ software (National Institutes of Health). Cell migration was calculated as the percentage of wound closure area compared to the initial scratched area.

| SMILES | IC50 ([1]; 24 h) | IC50 ([1]; 48 h) | IC50 ([1]; 72 h) | effect of low concentrations on osteoblast growth [1] | Fold differences between IC50 values of UMR-106 / MDA-MB-231 ([2]; 24 h) | IC50 ([2]; 24 h) | Fold differences between IC50 values of UMR-106 / MDA-MB-231 ([2]; 48 h) | IC50 ([2]; 48 h) | Fold differences between IC50 values of UMR-106 / MDA-MB-231 ([2]; 72 h) | IC50 ([2]; 72 h) | Fold differences between IC50 values of UMR-106 / MDA-MB-231 ([2]; Average of 24, 48 and 72 h) | effect of pretreatment of MDA-MB-231 cells on CM-mediated suppression of UMR-106 cell viability [3] | cellular ROS levels compared to control group [4] | level of p-NF-κB p65 [5] | percentage of wound closure (cell migration) ([6]; 20 µM, 24 h) | percentage of wound closure (cell migration) ([6]; 30 µM, 24 h) | percentage of wound closure (cell migration) ([6]; 30 µM, 36 h) | cell migration (wound closure) ([6]; 24 h) | cell migration (wound closure) ([6]; 36 h) |
| --- | --- | --- | --- | --- | --- | --- | --- | --- | --- | --- | --- | --- | --- | --- | --- | --- | --- | --- | --- |
| CCCCC/C=C\C/C=C\C/C=C\C/C=C\CCCC(=O)NCCCl [ACEA] | 104 µM | 62 µM | 38 µM | growth stimulatory effect | 1.54 fold | 67.8 µM | 1.63 fold | 38 µM | 1.16 fold | 32.8 µM | 1.44 fold | did not alter CM-mediated osteoblast suppression | remained unchanged | remained unchanged | significantly decreased | significantly decreased; also recorded: significant reduction | significantly decreased | – | – |
| COc1ccc2c(c1)c(CCN1CCOCC1)c(C)n2C(=O)c1cccc(Cl)c1Cl [GW405833] | 168 µM | 119 µM | 79.9 µM | growth stimulatory effect | 6.83 fold | 24.6 µM | 7.18 fold | 16.6 µM | 6.27 fold | 12.7 µM | 6.76 fold | significant recovery | remained unchanged | remained unchanged | – | – | – | significant reduction | significant cell migration suppression |
